Patent publication US5858684A, “Method of screening calcium receptor-active molecules” (priority 1995, dated 1999)
“Also recorded” adds a separate entry of the source. Where two headings read alike, the source gives them in different places. Values belong to the compound of their own block, whether it stands above or below them.

Experiments:
[1] = system: osteoclast calcium receptor; experiment: increase in [Ca2+]i in indo-1-loaded rat osteoclasts; format: cell-based
C-cell calcium receptor = biological target: T1, C-cell calcium receptor (Rattus norvegicus, UniProt P48442); format: cell-based; design: Neoplastic C-cells derived from a rat medullary thyroid carcinoma (rMTC 6-23); host or cells: rMTC 6-23; settings: rMTC 6-23 cells, fura-2; inactive = no increase in cytosolic Ca2+ at 1-5 mM
T1 sequence (P48442 20-1079): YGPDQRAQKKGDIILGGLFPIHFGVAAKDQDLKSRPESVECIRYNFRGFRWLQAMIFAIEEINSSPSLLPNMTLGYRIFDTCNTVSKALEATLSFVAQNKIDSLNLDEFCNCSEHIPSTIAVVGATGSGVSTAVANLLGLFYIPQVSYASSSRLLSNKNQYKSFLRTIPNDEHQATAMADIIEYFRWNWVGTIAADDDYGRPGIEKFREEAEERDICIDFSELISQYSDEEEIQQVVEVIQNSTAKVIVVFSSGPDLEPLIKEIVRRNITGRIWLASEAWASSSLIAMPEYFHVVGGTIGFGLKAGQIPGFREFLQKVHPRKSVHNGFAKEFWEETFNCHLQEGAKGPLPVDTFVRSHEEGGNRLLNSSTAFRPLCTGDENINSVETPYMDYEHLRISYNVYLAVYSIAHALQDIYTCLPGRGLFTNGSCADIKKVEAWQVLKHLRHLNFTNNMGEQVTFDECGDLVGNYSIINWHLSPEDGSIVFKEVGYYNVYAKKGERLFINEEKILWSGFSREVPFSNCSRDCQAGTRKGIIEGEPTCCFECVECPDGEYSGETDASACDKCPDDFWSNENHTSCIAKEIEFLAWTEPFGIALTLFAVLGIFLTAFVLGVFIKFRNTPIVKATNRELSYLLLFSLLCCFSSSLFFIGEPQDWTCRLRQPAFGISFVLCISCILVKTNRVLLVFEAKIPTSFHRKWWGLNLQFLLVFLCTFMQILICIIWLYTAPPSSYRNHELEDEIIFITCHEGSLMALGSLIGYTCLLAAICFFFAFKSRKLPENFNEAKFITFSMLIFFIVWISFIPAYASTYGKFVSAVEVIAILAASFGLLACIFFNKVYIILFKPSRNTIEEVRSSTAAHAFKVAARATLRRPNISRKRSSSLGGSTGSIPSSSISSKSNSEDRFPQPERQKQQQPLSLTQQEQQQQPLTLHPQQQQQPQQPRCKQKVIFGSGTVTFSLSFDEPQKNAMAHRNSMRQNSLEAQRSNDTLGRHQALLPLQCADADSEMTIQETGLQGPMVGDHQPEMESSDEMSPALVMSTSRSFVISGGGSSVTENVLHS

[2] = biological target: T2, calcium receptor expressed from bovine parathyroid cell mRNA in Xenopus oocytes (Bos taurus, UniProt P35384); experiment: Cl- current in Xenopus oocytes injected with bovine parathyroid mRNA; format: cell-based; settings: for oscillatory increases in Cl- current (words): bovine parathyroid mRNA
T2 sequence (P35384 20-1085): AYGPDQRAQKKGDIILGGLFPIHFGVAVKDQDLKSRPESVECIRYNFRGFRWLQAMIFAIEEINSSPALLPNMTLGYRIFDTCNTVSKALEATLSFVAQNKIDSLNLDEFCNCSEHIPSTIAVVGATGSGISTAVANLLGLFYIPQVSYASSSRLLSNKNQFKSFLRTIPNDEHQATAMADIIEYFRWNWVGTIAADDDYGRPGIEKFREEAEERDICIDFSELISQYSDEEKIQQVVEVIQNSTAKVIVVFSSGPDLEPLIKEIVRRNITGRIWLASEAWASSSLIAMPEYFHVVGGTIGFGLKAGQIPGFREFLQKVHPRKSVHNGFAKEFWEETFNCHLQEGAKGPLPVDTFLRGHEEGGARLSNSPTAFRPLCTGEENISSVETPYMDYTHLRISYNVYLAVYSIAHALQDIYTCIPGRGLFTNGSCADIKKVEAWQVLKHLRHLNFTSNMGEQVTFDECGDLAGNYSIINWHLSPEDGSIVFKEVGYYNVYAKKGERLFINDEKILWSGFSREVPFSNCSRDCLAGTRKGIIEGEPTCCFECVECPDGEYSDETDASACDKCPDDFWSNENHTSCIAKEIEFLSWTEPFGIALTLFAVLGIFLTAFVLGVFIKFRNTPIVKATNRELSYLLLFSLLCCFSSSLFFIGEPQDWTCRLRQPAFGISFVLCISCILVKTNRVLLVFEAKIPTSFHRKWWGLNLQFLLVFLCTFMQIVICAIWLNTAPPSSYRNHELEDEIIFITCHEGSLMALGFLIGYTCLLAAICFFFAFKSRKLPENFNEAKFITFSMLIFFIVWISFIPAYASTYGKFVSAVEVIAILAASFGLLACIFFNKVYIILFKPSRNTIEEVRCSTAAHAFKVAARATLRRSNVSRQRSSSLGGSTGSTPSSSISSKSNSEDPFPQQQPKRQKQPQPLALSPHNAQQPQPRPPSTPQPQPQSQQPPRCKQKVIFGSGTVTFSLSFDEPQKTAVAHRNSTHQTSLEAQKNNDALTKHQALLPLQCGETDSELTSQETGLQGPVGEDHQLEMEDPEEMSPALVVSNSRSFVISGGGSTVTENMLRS
Description: (§1) Glass capillary tubes (1 mm diameter) were pulled to a fine tip and manually broken to achieve a tip diameter of about 15 μmeters. A droplet of mRNA (1 ng/nl in diethylpyrocarbonate (DEPC)-treated water) was placed onto […]® and drawn into the capillary tube by suction. The capillary tube was then connected to a picospritzer (WPI Instruments) and the volume of the air-pulsed droplets adjusted to deliver 50 ng of mRNA (typically 50 nl). A 35-mm culture dish with a patch of nylon stocking fixed to the bottom was used to secure the oocytes during injection of mRNA into the vegetal pole. The injected oocytes were placed into a 35-mm culture dish containing MBS, 100 μg/ml penicillin and 100 μg/ml streptomycin and incubated at 18° C. for 3 days.
(§2) Following incubation, an oocyte was placed into a 100-μl plastic chamber and superfused with MBS at a flow rate of 0.5 ml/min using a peristaltic pump. Test molecules or inorganic polycations were added by rapidly moving the tubing into different buffers. Recording and current-passing electrodes were constructed from thin-wall capillary tubing pulled to a resistance of 1-3 Mohms and filled with 3M KCl. […] Currents were recorded directly onto a strip chart recorder.

[3] = biological target: T3, human parathyroid cells (calcium receptor) (Homo sapiens, UniProt P41180); format: cell-based; settings: 1 μM
T3 sequence (P41180 20-1078): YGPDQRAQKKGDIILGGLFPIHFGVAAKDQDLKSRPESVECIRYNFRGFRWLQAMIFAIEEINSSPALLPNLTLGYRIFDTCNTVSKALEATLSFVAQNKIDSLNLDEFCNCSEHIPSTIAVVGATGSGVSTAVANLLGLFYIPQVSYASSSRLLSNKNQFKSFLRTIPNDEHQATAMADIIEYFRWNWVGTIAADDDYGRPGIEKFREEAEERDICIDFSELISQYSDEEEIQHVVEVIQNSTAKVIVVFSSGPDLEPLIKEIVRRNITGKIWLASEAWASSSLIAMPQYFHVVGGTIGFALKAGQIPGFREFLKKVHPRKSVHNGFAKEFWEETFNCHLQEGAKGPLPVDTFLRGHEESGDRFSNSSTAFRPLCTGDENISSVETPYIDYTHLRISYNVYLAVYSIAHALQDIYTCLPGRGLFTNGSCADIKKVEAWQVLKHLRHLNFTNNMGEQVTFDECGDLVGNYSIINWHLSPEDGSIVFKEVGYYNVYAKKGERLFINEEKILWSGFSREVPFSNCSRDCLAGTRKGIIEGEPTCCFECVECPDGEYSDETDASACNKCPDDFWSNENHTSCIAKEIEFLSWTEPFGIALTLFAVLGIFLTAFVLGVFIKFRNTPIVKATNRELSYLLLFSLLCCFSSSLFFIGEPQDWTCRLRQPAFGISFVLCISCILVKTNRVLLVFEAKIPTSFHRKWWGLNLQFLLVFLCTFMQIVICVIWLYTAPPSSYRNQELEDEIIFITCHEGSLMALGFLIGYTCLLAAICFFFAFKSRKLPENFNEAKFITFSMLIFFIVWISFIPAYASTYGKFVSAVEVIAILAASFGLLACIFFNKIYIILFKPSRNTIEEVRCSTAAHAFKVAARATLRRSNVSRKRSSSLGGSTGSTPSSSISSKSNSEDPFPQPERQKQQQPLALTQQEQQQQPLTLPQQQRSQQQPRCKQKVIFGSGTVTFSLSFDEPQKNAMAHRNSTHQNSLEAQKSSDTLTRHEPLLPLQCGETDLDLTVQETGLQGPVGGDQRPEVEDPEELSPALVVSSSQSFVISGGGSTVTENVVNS

[4] = system: PTH secretion from bovine parathyroid cells; experiment: PTH secretion from bovine parathyroid cells; format: cell-based; settings: bovine parathyroid cells
net positive charge = format: physicochemical
[5] = biological target: T4, calcium receptor expressed from human parathyroid cell mRNA in Xenopus oocytes (Homo sapiens, UniProt P41180); experiment: response of Xenopus oocytes injected with human parathyroid mRNA; format: cell-based; settings: human parathyroid mRNA
T4 sequence (P41180 20-1078): T3 sequence (P41180 20-1078)
Description: Oocytes were injected with poly(A)^+ -enriched mRNA from human parathyroid tissue (hyperplastic glands from a case of secondary HPT).
as §1, §2
Using this screen allows one to test for an action directly on the calcium receptor. Oocytes expressing the calcium receptor also responded to several molecules active on intact parathyroid cells when screened as follows. […] This offers rather compelling evidence showing that these molecules act on the calcium receptor or on some other protein intimately associated with its function.

[6] = system: parathyroid cell calcium receptor; format: cell-based; settings: for EC50: screened as in Example 1
[7] = biological target: T5, bovine parathyroid cell calcium receptor (BoPCaR 1) (Bos taurus, UniProt P35384); experiment: Cl- current in Xenopus oocytes expressing BoPCaR 1; format: cell-based; settings: 1 mM extracellular Ca2+
T5 construct: Xenopus oocytes were injected with BoPCaR 1, the 5.3 Kb cDNA encoding a bovine parathyroid cell calcium receptor; expressed in transfected cells; host or cells: Xenopus laevis oocytes injected with cRNA/cDNA of BoPCaR 1
T5 sequence (P35384 20-1085): T2 sequence (P35384 20-1085)
Description: as §2
The techniques used to clone the parathyroid calcium receptor are briefly described in this example; a more complete description of the techniques is provided in preceding sections, which describe techniques which may be used to clone additional forms of the Ca^2+ -receptor from other cell types. Poly(A^+)-enriched mRNA was initially prepared from bovine parathyroid glands by extracting with guanidinium thiocyanate, centrifugation through CsCl and oligo(dT) cellulose chromatography. […] No such currents were elicited in control eggs injected with water.
These responses are mediated by the following series of biochemical events:
Xenopus oocytes were injected with BoPCaR 1, the 5.3 Kb cDNA encoding a bovine parathyroid cell calcium receptor as described in Example 25. After two to three days, Cl^- currents were examined in the oocytes using a two-electrode voltage clamp.
Xenopus oocytes were injected with BoPCaR 1 as described in Example 25. After two to three days, Cl^- currents were examined in the oocytes using two electrode voltage clamp.

[8] = system: increases in [Ca2+]i elicited by extracellular Ca2+ in bovine parathyroid cells; experiment: block of extracellular Ca2+-induced [Ca2+]i increase / Ca2+ influx in bovine parathyroid cells; format: cell-based

SMILES: CC(NCCC(c1ccccc1)c1ccccc1)c1ccccc1 (racemic) [Fendiline, diphenylpropyl-α-phenethylamine]
EC50 ([1]; rat osteoclasts, indo-1, inactive = no increase in cytosolic Ca2+ at 1-5 mM, read-out: EC50 OSTEOCLAST (Table 6)): 200 µM
EC50 (C-cell calcium receptor): > 100 µM
concentration eliciting oscillatory increases in Cl- current [2]: 100 µM
oscillatory increases in Cl- current (words) [2]: evokes the mobilization of intracellular
oscillatory increases in Cl- current (words) ([2]; listed as fendiline): evokes oscillatory increases

SMILES: CC(Cc1ccccc1)NCCC(c1ccccc1)c1ccccc1 (centres unmarked) [Prenylamine]
increase in [Ca2+]i (words) ([1]; rat osteoclasts): mobilization

effect on Mg2+-elicited sustained [Ca2+]i increase [3]: not affected
SMILES: COCCOC(=O)C1=C(C)NC(C)=C(C(=O)OC(C)C)C1c1cccc([N+](=O)[O-])c1 (centres unmarked) [nimodipine]

SMILES: NCCCNCCCCNCCCN [Spermine, spermine]
inhibition of PTH secretion [4]: inhibits PTH secretion; also recorded: inhibited PTH secretion to the same extent

Net (+) Charge (Table 1) (net positive charge): +6
concentration effective in oocytes [5]: 135 µM
EC50 ([6]; parathyroid cells, read-out: EC50 (Table 1)): 20 µM
SMILES: C1CNCCNCCNCCNCCNCCN1 [Hexacyclen, 1,4,7,10,13,16-hexaaza-cyclooctadecane]
relative potency (fold) ([6]; hexacyclen vs NPS 383): 7 fold
relative potency (fold) ([6]; hexacyclen vs […]): 25 fold

SMILES: NCCCNCCCCNCCCNCCCN(O)CCCNC(=O)Cc1c[nH]c2ccccc12 [NPS 017]
EC50 OSTEOCLAST (Table 6) ([1]; rat osteoclasts, indo-1, inactive = no increase in cytosolic Ca2+ at 1-5 mM): inactive
Cl- current [7]: oscillatory increases

SMILES: NCCCCNCCCN [Spermidine, spermidine]
Net (+) Charge (Table 1) (net positive charge): +3
increase in [Ca2+]i in osteoclasts, overall [1]: none of these caused any large increase
EC50 ([6]; read-out: EC50 (Table 3)): 2000 µM

SMILES: NCCCNCCCCNCCCNCCCN(O)CCCNC(=O)Cc1c[nH]c2cccc(O)c12 [NPS 015]
EC50 C-CELL (Table 6) (C-cell calcium receptor): inactive

Net (+) Charge (Table 1) (net positive charge): +2
SMILES: NCCCCCCCCCCCCN [1,12-diaminododecane (DADD), 1,12-diaminododecane]
effect of pretreatment on increases in [Ca2+]i elicited by extracellular Ca2+ ([8]; 100 to 1000 μM): depresses steady-state, but not transient increases
fall in [Ca2+]i ([8]; 100 to 1000 μM, buffer containing 2 mM CaCl2): prompt fall

SMILES: CCN(CC)CCCCCCCCOC(=O)c1cc(OC)c(OC)c(OC)c1 [TMB-8]
block of influx of extracellular Ca2+ ([8]; 100 μM): blocked the influx of extracellular
potentiation of mobilization of intracellular Ca2+ elicited by extracellular divalent cations ([6]; 100 μM): potentiated the mobilization of intracellular; also recorded: potentiated transient increases
change in [Ca2+]i ([6]; 100 μM, 0.5 mM extracellular Ca2+): evoked no change
increase in [Ca2+]i at intermediate extracellular Ca2+ ([6]; 100 μM, 1-[…] extracellular Ca2+): small, but robust increase
